Structures can show the parent of a compound that is named as a salt. Where two headings read alike, the source gives them in different places.
Tests used:
[1] = Volatility of perfuming compounds in air; type: physicochemical
[2] = Log P (n-octanol/water) of perfuming compounds
[3] = Odor threshold of perfuming compounds in air
[4] = Table 10, perfuming compounds having a woody note
[5] = Table 6, perfuming compounds having a fruity note
[6] = Table 8, perfuming compounds having a sweet note
[7] = Table 9, perfuming compounds having a gourmand note
[8] = n-octanol/water, perfuming compounds having a fruity note (Table 6)

In the case of `CCCCC(CC)C(=O)OC` (racemic) [(+−)-methyl 2-ethylhexanoate], the “Volatility (μg/l air)” value [1, 4] is reported as 6677.64 μg/l air, the “Log P (n-octanol/water)” value [2, 4] is reported as 3.37 and the logP (physchem; n-octanol/water) is reported as 3.37.

With `CCCOC(=O)[C@H](C)OC(C)(C)CC` [(−)-PROPYL (S)-2-(1,1-DIMETHYLPROPOXY)PROPANOATE] the “Odor Threshold” value ([3]; Table 7, citrus note) was 4.98E−01 μg/l air and the logP (physchem; n-octanol/water) was 3.17.

For `CC(C)c1cccc(C(C)CC=O)c1` (racemic) [(+−)-3-(3-ISOPROPYL-1-PHENYL)BUTANAL], the Volatility ([1]; Table 4, watery note) was 14.74 μg/l air, the Volatility ([1]; Table 5, perfuming compounds having a green note) was 14.74 μg/l air and the “Odor Threshold” value ([3]; Table 4, watery note) was 7.71E−04 μg/l air.

With `CCCCCCOC(=O)c1ccccc1O` [HEXYL 2-HYDROXYBENZOATE] the “Log P (n-octanol/water)” value [2, 5] was 5.55, the “Log P (n-octanol/water)” value ([2]; Table 7, citrus note) was 5.55 and the logP (physchem; n-octanol/water) was 5.55.

For `C=CCSSCC=C` [DIALLYL DISULFIDE], the “Volatility (μg/l air)” value [1, 6] was 5487.52 μg/l air, the “Volatility (μg/l air)” value [1, 7] was 5487.52 μg/l air and the “Log P (n-octanol/water)” value [2, 7] was 3.30. For the same compound, the logP (physchem) was 3.3.

With `CCCCCCOC(=O)C(C)C` [hexyl 2-methylpropanoate] the “Log P (n-octanol/water)” value [2, 8] was 4.31 and the logP (physchem; n-octanol/water) was 4.31.

In the case of `C/C=C/C(=O)C1=C(C)CCCC1(C)C`, the “Volatility (μg/l air)” value [1, 5] is reported as 81.66 μg/l air, the “Volatility (μg/l air)” value [1, 4] is reported as 81.66 μg/l air and the “Log P (n-octanol/water)” value [2, 4] is reported as 3.63. For the same compound, the logP (physchem; n-octanol/water) was 3.63.

For `CC(=O)CCC1=C(C)CCCC1(C)C`, the “Volatility (μg/l air)” value [1, 6] was 63.61 μg/l air, the “Volatility (μg/l air)” value [1, 4] was 63.61 μg/l air and the “Log P (n-octanol/water)” value [2, 4] was 3.99. The logP (physchem; n-octanol/water) was 3.99.

With `CCCCCC(=O)OCC` [ETHYL HEXANOATE] the “Log P (n-octanol/water)” value [2, 6] was 3.12, the “Log P (n-octanol/water)” value [2, 7] was 3.12 and the “Log P (n-octanol/water)” value [2, 8] was 3.12. It also gave a logP (physchem; n-octanol/water) of 3.12.

With `C=C(C)CC(C)OC(=O)C(C)C` (racemic) the “Volatility (μg/l air)” value [1, 6] was 9902.98 μg/l air, the “Volatility (μg/l air)” value [1, 7] was 9902.98 μg/l air and the “Log P (n-octanol/water)” value [2, 6] was 3.57. The “Log P (n-octanol/water)” value [2, 7] was 3.57 and the logP (physchem; n-octanol/water) was 3.57.

For `CC1CC(C)(c2ccccc2)CO1` (racemic), the “Log P (n-octanol/water)” value [2, 8] was 3.02 and the logP (physchem; n-octanol/water) was 3.02.

For `CCC(=O)/C=C/C1=C(C)CCCC1(C)C`, the “Volatility (μg/l air)” value [1, 6] was 15.81 μg/l air, the “Volatility (μg/l air)” value [1, 7] was 15.81 μg/l air and the “Log P (n-octanol/water)” value [2, 7] was 4.47. For the same compound, the logP (physchem; n-octanol/water) was 4.47.

With `C/C=C/C(=O)[C@@H]1[C@@H](C)C=CCC1(C)C` (racemic) the “Volatility (μg/l air)” value [1, 6] was 143.53 μg/l air, the “Volatility (μg/l air)” value [1, 7] was 143.53 μg/l air and the “Log P (n-octanol/water)” value [2, 7] was 4.13. It also gave a logP (physchem; n-octanol/water) of 4.13.

For `CCCCCC(=O)OC` [METHYL HEXANOATE], the “Log P (n-octanol/water)” value [2, 8] was 2.65 and the logP (physchem; n-octanol/water) was 2.65.

With `C=C(C)C1CC=C(C)CC1` (single isomer, unassigned; (+)) [(+)-LIMONENE] the “Odor Threshold” value ([3]; Table 7, citrus note) was 1.29E−01 μg/l air.

For `C/C=C(\C)C(=O)OCCCCCC` [hexyl (2E)-2-methyl-2-butenoate], the “Log P (n-octanol/water)” value [2, 6] was 4.80, the “Log P (n-octanol/water)” value [2, 8] was 4.80 and the logP (physchem; n-octanol/water) was 4.8.

For `CC(OC=O)C1CCCC(C)(C)C1` (stereo not shown) [1-(3,3-DIMETHYL-1-CYCLOHEXYL)ETHYL FORMATE], the “Odor Threshold” value ([3]; Table 7, citrus note) was 2.05E−01 μg/l air and the logP (physchem; n-octanol/water) was 4.01.

For `CC/C=C\CCOC(=O)c1ccccc1` [(3Z)-3-hexen-1-yl benzoate], the “Log P (n-octanol/water)” value [2, 5] was 4.21, the “Log P (n-octanol/water)” value ([2]; Table 7, citrus note) was 4.21 and the logP (physchem; n-octanol/water) was 4.21.

For `CC(=O)OC/C=C(/C)CCC=C(C)C` [(2Z)-3,7-dimethyl-2,6-octadien-1-yl acetate], the “Log P (n-octanol/water)” value [2, 5] was 3.81 and the logP (physchem; n-octanol/water) was 3.81.

With `CCCCCCC1CCCC(=O)O1` (stereo not shown) [6-hexyltetrahydro-2H-pyran-2-one] the “Volatility (μg/l air)” value [1, 5] was 4.64 μg/l air, the “Volatility (μg/l air)” value [1, 6] was 4.64 μg/l air and the “Volatility (μg/l air)” value [1, 7] was 4.64 μg/l air. The “Log P (n-octanol/water)” value [2, 6] was 3.00, the “Log P (n-octanol/water)” value [2, 7] was 3.00 and the logP (physchem; n-octanol/water) was 3.

In the case of `CC/C=C\CC1=C(C)CCC1=O`, the “Volatility (μg/l air)” value [1, 6] is reported as 56.72 μg/l air, the “Volatility (μg/l air)” value [1, 7] is reported as 56.72 μg/l air and the “Log P (n-octanol/water)” value [2, 7] is reported as 2.61. It also gave a logP (physchem; n-octanol/water) of 2.61.

With `CC/C=C\CCOC(=O)C/C=C\CC` [(3Z)-3-hexen-1-yl (3Z)-3-hexenoate] the “Log P (n-octanol/water)” value [2, 6] was 4.22, the “Log P (n-octanol/water)” value [2, 7] was 4.22 and the “Log P (n-octanol/water)” value [2, 8] was 4.22. For the same compound, the logP (physchem; n-octanol/water) was 4.22.

In the case of `CC/C=C\CCOC(=O)OC` [(3Z)-hex-3-en-1-yl methyl carbonate], the “Log P (n-octanol/water)” value [2, 8] is reported as 2.97 and the logP (physchem; n-octanol/water) is reported as 2.97.

For `C=C(C)CC(C(C)=O)C(=O)OCC` (racemic), the “Log P (n-octanol/water)” value [2, 8] was 2.15 and the logP (physchem; n-octanol/water) was 2.15.

In the case of `COc1cc(C=O)ccc1O` [4-hydroxy-3-methoxybenzaldehyde], the “Volatility (μg/l air)” value [1, 6] is reported as 4.24 μg/l air, the “Volatility (μg/l air)” value [1, 7] is reported as 4.24 μg/l air and the “Log P (n-octanol/water)” value [2, 7] is reported as 0.72. For the same compound, the logP (physchem; n-octanol/water) was 0.72.

With `CCCCCC1CCCC(=O)O1` (racemic) [(+−)-6-pentyltetrahydro-2H-pyran-2-one] the “Volatility (μg/l air)” value [1, 5] was 9.61 μg/l air, the “Volatility (μg/l air)” value [1, 6] was 9.61 μg/l air and the “Volatility (μg/l air)” value [1, 7] was 9.61 μg/l air. For the same compound, the “Log P (n-octanol/water)” value [2, 6] was 2.22, the “Log P (n-octanol/water)” value [2, 7] was 2.22 and the logP (physchem; n-octanol/water) was 2.22.

For `C/C=C/c1ccc(O)c(OC)c1` [2-methoxy-4-[(1E)-1-propen-1-yl]phenol], the “Volatility (μg/l air)” value [1, 6] was 11.28 μg/l air, the “Volatility (μg/l air)” value [1, 7] was 11.28 μg/l air and the “Log P (n-octanol/water)” value [2, 7] was 2.15. For the same compound, the logP (physchem; n-octanol/water) was 2.15.

With `CCCC1CCCC(=O)O1` (racemic) [(+−)-6-propyltetrahydro-2H-pyran-2-one] the “Log P (n-octanol/water)” value ([2]; Table 7, citrus note) was 1.47 and the logP (physchem; n-octanol/water) was 1.47.

Source: patent US11427783B2, “Perfuming compositions” (Firmenich SA, priority 2016, dated 2022)
